pKd: −log10 of the molar value.
Legend:
Galectin-1 = Galectin-1 (Homo sapiens, UniProt P09382); experiment: fluorescence anisotropy assay, compound as inhibitor of galectin / fluorescein tagged saccharide probe interaction; format: binding
Source text: (§1) Anal. Biochem. 334: 36-47, (Sörme et al., 2004) and Monovalent interactions of Galectin-1 By Salomonsson, Emma; Larumbe, Amaia; Tejler, Johan; Tullberg, Erik; Rydberg, Hanna; Sundin, Anders; Khabut, Areej; Frejd, Torbjorn; Lobsanov, Yuri D.; Rini, James M.; et al, From Biochemistry (2010), 49(44), 9518-9532, (Salomonsson et al., 2010).

Galectin-3 = Galectin-3 (Homo sapiens, UniProt P17931); experiment: as above; format: binding
Source text: as §1

Sequence of Galectin-1 (P09382 whole entry): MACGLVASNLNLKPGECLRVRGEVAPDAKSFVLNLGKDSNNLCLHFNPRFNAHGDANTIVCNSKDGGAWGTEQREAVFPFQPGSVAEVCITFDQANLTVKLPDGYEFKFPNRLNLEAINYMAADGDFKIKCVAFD
Sequence of Galectin-3 (P17931 whole entry): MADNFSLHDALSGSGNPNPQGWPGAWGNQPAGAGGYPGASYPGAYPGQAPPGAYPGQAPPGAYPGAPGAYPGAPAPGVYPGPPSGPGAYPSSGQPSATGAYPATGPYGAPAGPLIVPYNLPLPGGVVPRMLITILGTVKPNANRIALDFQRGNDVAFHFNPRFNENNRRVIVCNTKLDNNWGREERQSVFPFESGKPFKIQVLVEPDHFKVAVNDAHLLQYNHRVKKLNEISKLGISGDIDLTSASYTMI

| SMILES | pKd (Galectin-1) | pKd (Galectin-3) |
| --- | --- | --- |
| OC[C@H]1O[C@H](Sc2cc(Cl)cnc2-c2ncc[nH]2)[C@H](O)[C@@H](n2cc(-c3csc(O)n3)nn2)[C@H]1O [Example 75, 5-Chloro-2-(1H-imidazol-2-yl)pyridin-3-yl 3-deoxy-3-[4-(2-hydroxythiazol-4-yl)-1H-1,2,3-triazol-1-yl]-1-thio-α-D-galactopyranoside] | 6.89 | 5.11 |
| CO[C@@H]1[C@@H](n2cc(-c3nc(Cl)cs3)nn2)[C@@H](O)[C@@H](CO)O[C@@H]1Sc1cc(Cl)cnc1-c1ccccn1 [Example 76, 5-Chloro-2-(pyridin-2-yl)-pyridin-3-yl 3-[4-(4-chlorothiazol-2-yl)-1H-1,2,3-triazol-1-yl]-3-deoxy-2-O-methyl-1-thio-α-D-galactopyranoside] | 8.00 | 6.82 |
| Cc1cnc(C#N)c(S[C@H]2O[C@H](CO)[C@H](O)[C@H](n3cc(-c4nc(Cl)cs4)nn3)[C@H]2O)c1 [Example 77, 2-Cyano-5-methylpyridin-3-yl 3-[4-(4-chlorothiazol-2-yl)-1H-1,2,3-triazol-1-yl]-3-deoxy-1-thio-α-D-galactopyranoside] | 6.08 | 6.07 |
| Nc1nc(-c2cn([C@H]3[C@@H](O)[C@@H](CO)O[C@H](Sc4ccc(Cl)c(Cl)c4)[C@@H]3OCC(F)(F)F)nn2)cs1 [Example 78, 3,4-Dichlorophenyl 3-[4-(2-aminothiazol-4-yl)-1H-1,2,3-triazol-1-yl]-3-deoxy-2-O-(2,2,2-trifluoroethyl)-1-thio-α-D-galactopyranoside] | 6.28 | 5.14 |
| OC[C@H]1O[C@H](Sc2ccc(Cl)c(Cl)c2)[C@H](OCC(F)(F)F)[C@@H](n2cc(-c3csc(O)n3)nn2)[C@H]1O [Example 79, 3,4-Dichlorophenyl 3-deoxy-2-O-(2,2,2-trifluoroethyl)-3-[4-(2-hydroxythiazol-4-yl)-1H-1,2,3-triazol-1-yl]-1-thio-α-D-galactopyranoside] | 6.34 | 5.17 |
| C#Cc1cncc(S[C@H]2O[C@H](CO)[C@H](O)[C@H](n3cc(-c4nc(Cl)cs4)nn3)[C@H]2O)c1 [Example 80, 5-Ethynylpyridin-3-yl 3-[4-(4-chlorothiazol-2-yl)-1H-1,2,3-triazol-1-yl]-3-deoxy-1-thio-α-D-galactopyranoside] | 6.51 | 6.44 |
| C#Cc1cncc(S[C@H]2O[C@H](CO)[C@H](O)[C@H](n3cc(-c4csc(N)n4)nn3)[C@H]2OC)c1 [Example 81, 5-Ethynylpyridin-3-yl 3-[4-(2-aminothiazol-4-yl)-1H-1,2,3-triazol-1-yl]-3-deoxy-2-O-methyl-1-thio-α-D-galactopyranoside] | 6.72 | 5.18 |
| CO[C@@H]1[C@@H](n2cc(-c3nc(Cl)cs3)nn2)[C@@H](O)[C@@H](CO)O[C@@H]1Sc1cncc(C#N)c1 [Example 82, 5-Cyanopyridin-3-yl 3-[4-(4-chlorothiazol-2-yl)-1H-1,2,3-triazol-1-yl]-3-deoxy-2-O-methyl-1-thio-α-D-galactopyranoside] | 6.77 | 6.28 |
| CO[C@@H]1[C@@H](n2cc(-c3csc(O)n3)nn2)[C@@H](O)[C@@H](CO)O[C@@H]1Sc1cncc(C#N)c1 [Example 83, 5-Cyanopyridin-3-yl 3-deoxy-3-[4-(2-hydroxythiazol-4-yl)-1H-1,2,3-triazol-1-yl]-2-O-methyl-1-thio-α-D-galactopyranoside] | 6.82 | 5.24 |
| C#Cc1cnc(C#N)c(S[C@H]2O[C@H](CO)[C@H](O)[C@H](n3cc(-c4csc(N)n4)nn3)[C@H]2O)c1 [Example 84, 2-Cyano-5-ethynylpyridin-3-yl 3-[4-(2-aminothiazol-4-yl)-1H-1,2,3-triazol-1-yl]-3-deoxy-1-thio-α-D-galactopyranoside] | 6.27 | 5.39 |
| C#Cc1cnc(C#N)c(S[C@H]2O[C@H](CO)[C@H](O)[C@H](n3cc(-c4csc(N)n4)nn3)[C@H]2OC)c1 [Example 85, 2-Cyano-5-ethynylpyridin-3-yl 3-[4-(2-aminothiazol-4-yl)-1H-1,2,3-triazol-1-yl]-3-deoxy-2-O-methyl-1-thio-α-D-galactopyranoside] | 6.96 | 5.11 |

— patent publication US12441754B2, “Galactoside inhibitor of galectins” (GALECTO BIOTECH AB, priority 2019, dated 2025)
